The target in experiment [1] is T1, recombinant Mpro^CoV-2 (SARS-CoV-2 M^pro) (Severe acute respiratory syndrome coronavirus 2, UniProt P0DTD1).
T1 construct: gene rep
As to the kind of experiment: FRET peptide cleavage assay (Dabcyl-KTSAVLQSGFRKME-Edans). It is filed as biochemical. From the text: FRET peptide cleavage assay (Dabcyl-KTSAVLQSGFRKME-Edans) on recombinant Mpro^CoV-2 (SARS-CoV-2 M^pro)

Experiment [2] deals with T2, His-tagged recombinant Mpro^CoV-2 (Severe acute respiratory syndrome coronavirus 2, UniProt P0DTD1).
T2 construct: gene rep
As to the kind of experiment: microscale thermophoresis binding check. The settings on record: 50 nM labelled protein, PBS-T, 2.5% DMSO, 25 °C, 60-90 min incubation; tested concentration, not a Kd. From the text: microscale thermophoresis binding check on His-tagged recombinant Mpro^CoV-2

On to `NC(=O)CCC(=O)N(CC(=O)NC1CCCCC1)[C@H](CB(O)O)c1ccccc1` [3a, (R)-(2-(4-Amino-N-(2-(cyclohexylamino)-2-oxoethyl)-4-oxobutanamido)-2-phenylethyl)boronic Acid], for which, in experiment [1], the inhibition (as a rule, the change of the read-out against control, counted positive when it falls) at 20 µM is 23.4%. Consider `NC(=O)CCC(=O)N(CC(=O)NCc1ccccc1)[C@H](CB(O)O)c1ccccc1` [3c, (R)-(2-(4-Amino-N-(2-(benzylamino)-2-oxoethyl)-4-oxobutanamido)-2-phenylethyl)boronic Acid], for which the “Ligand Concentration Displaying: / Binding” value in experiment [2] was 4 µM. `NC(=O)CCCC(=O)N(CC(=O)NCc1ccccc1)[C@H](CB(O)O)c1ccccc1` [3ea, (R)-(2-(5-Amino-N-(2-(benzylamino)-2-oxoethyl)-5-oxopentanamido)-2-phenylethyl)boronic Acid]: the inhibition at 20 µM in experiment [1] was determined as 23.7%. `NC(=O)CCCC(=O)N(CC(=O)NCc1ccccc1)[C@@H](CB(O)O)c1ccccc1` [3eb, (S)-(2-(5-Amino-N-(2-(benzylamino)-2-oxoethyl)-5-oxopentanamido)-2-phenylethyl)boronic Acid]: the “Ligand Concentration Displaying: / Binding” value in experiment [2] was 3.1 µM. Same read-out and setting: then `CC(C)(C)NC(=O)CN(C(=O)CCCC(N)=O)[C@H](CB(O)O)c1ccccc1` [3f, (R)-(2-(5-Amino-N-(2-(tert-butylamino)-2-oxoethyl)-5-oxopentanamido)-2-phenylethyl)boronic Acid], with 1 µM.

(Values after article PMC10005264, “Computational Design, Synthesis, and Biophysical Evaluation of β-Amido Boronic Acids as SARS-CoV-2 M^pro Inhibitors” (Molecules, 2023).)
